Measured values from ChEMBL document CHEMBL1201862, “PubChem BioAssay data set” (2004).
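Exposure lasted 48 hours, with cells grown in 96-well plates and compounds tested at five concentrations. Abbreviation: GI50, concentration required for 50% inhibition of growth.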 Active and inactive are the calls of the source. Rule as the data show it: active = GI50 up to about 1.1 µM and inactive = higher.

Columns and labels:
Experiment in all cases: NCI tumour cell line growth inhibition, 48 h
T47D = tested on: T47D
HOP-62 = tested on: HOP-62
KM12 = tested on: KM12
MDA-N = tested on: MDA-N
NCI/ADR-RES = tested on: NCI/ADR-RES
EKVX = tested on: EKVX
HL-60 = tested on: HL-60
MDA-MB-231 = tested on: MDA-MB-231
SR = tested on: SR
RXF 393 = tested on: RXF 393
MDA-MB-435 = tested on: MDA-MB-435
NCI-H23 = tested on: NCI-H23
HCC 2998 = tested on: HCC 2998
A498 = tested on: A498
NCI-H460 = tested on: NCI-H460
COLO 205 = tested on: COLO 205
NCI-H522 = tested on: NCI-H522
SF-295 = tested on: SF-295
MOLT-4 = tested on: MOLT-4
Malme-3M = tested on: Malme-3M
DU-145 = tested on: DU-145
ACHN = tested on: ACHN
A549 = tested on: A549
Hs-578T = tested on: Hs-578T
786-0 = tested on: 786-0
M14 = tested on: M14
OVCAR-4 = tested on: OVCAR-4
SF-539 = tested on: SF-539
TK-10 = tested on: TK-10
UACC-62 = tested on: UACC-62
K562 = tested on: K562
UACC-257 = tested on: UACC-257
SK-MEL-2 = tested on: SK-MEL-2
HOP-92 = tested on: HOP-92
HCT-116 = tested on: HCT-116
UO-31 = tested on: UO-31
BT-549 = tested on: BT-549
HCT-15 = tested on: HCT-15
U-251 = tested on: U-251
SK-MEL-28 = tested on: SK-MEL-28
LOX IMVI = tested on: LOX IMVI
CAKI-1 = tested on: CAKI-1
RPMI-8226 = tested on: RPMI-8226
SF-268 = tested on: SF-268
SNB-19 = tested on: SNB-19
SW-620 = tested on: SW-620
OVCAR-8 = tested on: OVCAR-8
SK-OV-3 = tested on: SK-OV-3
HT-29 = tested on: HT-29
CCRF-CEM = tested on: CCRF-CEM
OVCAR-5 = tested on: OVCAR-5
IGROV-1 = tested on: IGROV-1
SK-MEL-5 = tested on: SK-MEL-5
OVCAR-3 = tested on: OVCAR-3
MCF7 = tested on: MCF7
PC-3 = tested on: PC-3
SN12C = tested on: SN12C
SNB-75 = tested on: SNB-75
NCI-H226 = tested on: NCI-H226

SMILES: O=C(Nc1ccccc1)c1cc2c(cc1Cl)Sc1nccn1S2(=O)=O
- GI50 (T47D): 19.1 µM (inactive)
- GI50 (HOP-62): 16 µM (inactive)
- GI50 (KM12): 18.6 µM (inactive)
- GI50 (MDA-N): 23.5 µM (inactive)
- GI50 (NCI/ADR-RES): 41.8 µM (inactive)
- GI50 (EKVX): 24.2 µM (inactive)
- GI50 (HL-60): 15.8 µM (inactive)
- GI50 (MDA-MB-231): 27 µM (inactive)
- GI50 (SR): 14.8 µM (inactive)
- GI50 (RXF 393): 17.7 µM (inactive)
- GI50 (MDA-MB-435): 14.8 µM (inactive)
- GI50 (NCI-H23): 18.4 µM (inactive)
- GI50 (HCC 2998): 18.5 µM (inactive)
- GI50 (A498): 18.5 µM (inactive)
- GI50 (NCI-H460): 16.6 µM (inactive)
- GI50 (COLO 205): 15.3 µM (inactive)
- GI50 (NCI-H522): 21 µM (inactive)
- GI50 (SF-295): 41.5 µM (inactive)
- GI50 (MOLT-4): 15.6 µM (inactive)
- GI50 (Malme-3M): 30.1 µM (inactive)
- GI50 (DU-145): 18.9 µM (inactive)
- GI50 (ACHN): 41.3 µM (inactive)
- GI50 (A549): 36.4 µM (inactive)
- GI50 (Hs-578T): 22.8 µM (inactive)
- GI50 (786-0): 21.2 µM (inactive)
- GI50 (M14): 16 µM (inactive)
- GI50 (OVCAR-4): 31.8 µM (inactive)
- GI50 (SF-539): 23 µM (inactive)
- GI50 (TK-10): 34.5 µM (inactive)
- GI50 (UACC-62): 17.6 µM (inactive)
- GI50 (K562): 28.2 µM (inactive)
- GI50 (UACC-257): 18.7 µM (inactive)
- GI50 (SK-MEL-2): 28.6 µM (inactive)
- GI50 (HOP-92): 2.58 µM (inactive)
- GI50 (HCT-116): 12.1 µM (inactive)
- GI50 (UO-31): 34 µM (inactive)
- GI50 (BT-549): 19.7 µM (inactive)
- GI50 (HCT-15): 19.1 µM
- GI50 (U-251): 25.5 µM (inactive)
- GI50 (SK-MEL-28): 18 µM (inactive)
- GI50 (LOX IMVI): 9.2 µM (inactive)
- GI50 (CAKI-1): 0.266 µM (active)
- GI50 (RPMI-8226): 19.8 µM (inactive)
- GI50 (SF-268): 25.2 µM (inactive)
- GI50 (SNB-19): > 100 µM (inactive)
- GI50 (SW-620): 21.1 µM (inactive)
- GI50 (OVCAR-8): 58.2 µM (inactive)
- GI50 (SK-OV-3): 76.4 µM (inactive)
- GI50 (HT-29): 21.9 µM (inactive)
- GI50 (CCRF-CEM): 17.3 µM (inactive)
- GI50 (OVCAR-5): 27.2 µM (inactive)
- GI50 (IGROV-1): 20.2 µM (inactive)
- GI50 (SK-MEL-5): 12.9 µM (inactive)
- GI50 (OVCAR-3): 21.4 µM (inactive)
- GI50 (MCF7): 12.6 µM (inactive)
- GI50 (PC-3): 20.1 µM (inactive)
- GI50 (SN12C): 46.1 µM (inactive)
- GI50 (SNB-75): 17.7 µM (inactive)

SMILES: COc1ccc(/C=C(\C(=O)OCC(C)C)c2ccc(OC)c(OC)c2)cc1OC
- GI50 (T47D): > 100 µM (inactive)
- GI50 (HOP-62): 74 µM (inactive)
- GI50 (KM12): > 10 µM (inactive)
- GI50 (MDA-N): > 100 µM (inactive)
- GI50 (NCI/ADR-RES): > 100 µM (inactive)
- GI50 (EKVX): > 100 µM (inactive)
- GI50 (HL-60): > 100 µM (inactive)
- GI50 (MDA-MB-231): 31 µM (inactive)
- GI50 (SR): > 100 µM (inactive)
- GI50 (RXF 393): > 100 µM (inactive)
- GI50 (MDA-MB-435): > 100 µM (inactive)
- GI50 (NCI-H23): > 100 µM (inactive)
- GI50 (HCC 2998): > 100 µM (inactive)
- GI50 (A498): > 100 µM (inactive)
- GI50 (NCI-H460): > 100 µM (inactive)
- GI50 (COLO 205): 38.4 µM (inactive)
- GI50 (NCI-H522): > 100 µM (inactive)
- GI50 (NCI-H226): > 100 µM (inactive)
- GI50 (SF-295): 69.5 µM (inactive)
- GI50 (MOLT-4): > 100 µM (inactive)
- GI50 (DU-145): > 100 µM (inactive)
- GI50 (ACHN): > 100 µM (inactive)
- GI50 (A549): > 100 µM (inactive)
- GI50 (Hs-578T): > 100 µM (inactive)
- GI50 (786-0): > 100 µM (inactive)
- GI50 (M14): 32.5 µM (inactive)
- GI50 (OVCAR-4): > 100 µM (inactive)
- GI50 (SF-539): > 100 µM (inactive)
- GI50 (TK-10): > 100 µM (inactive)
- GI50 (UACC-62): > 100 µM (inactive)
- GI50 (K562): > 100 µM (inactive)
- GI50 (UACC-257): > 100 µM (inactive)
- GI50 (SK-MEL-2): > 100 µM (inactive)
- GI50 (HOP-92): > 100 µM (inactive)
- GI50 (HCT-116): > 100 µM (inactive)
- GI50 (UO-31): > 100 µM (inactive)
- GI50 (BT-549): > 100 µM (inactive)
- GI50 (HCT-15): > 100 µM
- GI50 (U-251): 56.2 µM (inactive)
- GI50 (SK-MEL-28): > 100 µM (inactive)
- GI50 (LOX IMVI): 74.6 µM (inactive)
- GI50 (CAKI-1): > 100 µM (inactive)
- GI50 (RPMI-8226): > 100 µM (inactive)
- GI50 (SF-268): > 100 µM (inactive)
- GI50 (SNB-19): > 100 µM (inactive)
- GI50 (SW-620): > 100 µM (inactive)
- GI50 (OVCAR-8): > 100 µM (inactive)
- GI50 (HT-29): > 100 µM (inactive)
- GI50 (CCRF-CEM): > 100 µM (inactive)
- GI50 (OVCAR-5): > 100 µM (inactive)
- GI50 (IGROV-1): > 100 µM (inactive)
- GI50 (SK-MEL-5): > 100 µM (inactive)
- GI50 (OVCAR-3): > 100 µM (inactive)
- GI50 (MCF7): > 100 µM (inactive)
- GI50 (PC-3): > 100 µM (inactive)
- GI50 (SN12C): > 100 µM (inactive)
- GI50 (SNB-75): 47.2 µM (inactive)

SMILES: Cc1n[nH]c(=O)n1C1CC1
- GI50 (T47D): > 100 µM (inactive)
- GI50 (HOP-62): > 100 µM (inactive)
- GI50 (KM12): > 100 µM (inactive)
- GI50 (MDA-N): > 100 µM (inactive)
- GI50 (NCI/ADR-RES): > 100 µM (inactive)
- GI50 (EKVX): > 100 µM (inactive)
- GI50 (HL-60): > 100 µM (inactive)
- GI50 (MDA-MB-231): > 100 µM (inactive)
- GI50 (SR): > 100 µM (inactive)
- GI50 (RXF 393): > 100 µM (inactive)
- GI50 (MDA-MB-435): > 100 µM (inactive)
- GI50 (NCI-H23): > 100 µM (inactive)
- GI50 (HCC 2998): > 100 µM (inactive)
- GI50 (NCI-H460): > 100 µM (inactive)
- GI50 (COLO 205): > 100 µM (inactive)
- GI50 (NCI-H522): > 100 µM (inactive)
- GI50 (NCI-H226): > 100 µM (inactive)
- GI50 (SF-295): > 100 µM (inactive)
- GI50 (MOLT-4): > 100 µM (inactive)
- GI50 (Malme-3M): 64.1 µM (inactive)
- GI50 (DU-145): > 100 µM (inactive)
- GI50 (ACHN): > 100 µM (inactive)
- GI50 (A549): > 100 µM (inactive)
- GI50 (Hs-578T): > 100 µM (inactive)
- GI50 (786-0): > 100 µM (inactive)
- GI50 (M14): > 100 µM (inactive)
- GI50 (OVCAR-4): > 100 µM (inactive)
- GI50 (SF-539): > 100 µM (inactive)
- GI50 (UACC-62): > 100 µM (inactive)
- GI50 (K562): > 100 µM (inactive)
- GI50 (UACC-257): > 100 µM (inactive)
- GI50 (HOP-92): > 100 µM (inactive)
- GI50 (HCT-116): > 100 µM (inactive)
- GI50 (UO-31): > 100 µM (inactive)
- GI50 (BT-549): 0.0111 µM (active)
- GI50 (HCT-15): > 100 µM
- GI50 (U-251): > 100 µM (inactive)
- GI50 (SK-MEL-28): > 100 µM (inactive)
- GI50 (LOX IMVI): > 100 µM (inactive)
- GI50 (CAKI-1): > 100 µM (inactive)
- GI50 (RPMI-8226): > 100 µM (inactive)
- GI50 (SF-268): > 100 µM (inactive)
- GI50 (SNB-19): > 100 µM (inactive)
- GI50 (SW-620): > 100 µM (inactive)
- GI50 (OVCAR-8): > 100 µM (inactive)
- GI50 (SK-OV-3): > 100 µM (inactive)
- GI50 (HT-29): > 100 µM (inactive)
- GI50 (CCRF-CEM): > 100 µM (inactive)
- GI50 (OVCAR-5): > 100 µM (inactive)
- GI50 (IGROV-1): > 100 µM (inactive)
- GI50 (SK-MEL-5): > 100 µM (inactive)
- GI50 (OVCAR-3): > 100 µM (inactive)
- GI50 (MCF7): > 100 µM (inactive)
- GI50 (PC-3): > 100 µM (inactive)
- GI50 (SN12C): > 100 µM (inactive)
- GI50 (SNB-75): 42.7 µM (inactive)
